According to publication PMC6979384, “Characterization of the plant homeodomain (PHD) reader family for their histone tail interactions” (Epigenetics & Chromatin, 2020):

Experiments:
Assay in all cases: Histone peptide microarray
Type in all cases: binding, human
DPF2 (PPC2W2) = details: GST-tagged DPF2 (PPC2W2 = Dual PHD + C2W2-type Zn-finger); sheet Array Heatmap; each array performed twice, total n = 4
How it was run: (§1)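 Each reader, produced as a GST fusion and purified, was tested at 0.5 μM on synthetic histone peptides (293 in total) carrying single or combinatorial marks. Intensities averaged over four replicates.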

MORC3 (CW) = details: GST-tagged MORC3 (CW = CW-type Zn-finger); sheet Array Heatmap; each array performed twice, total n = 4
How it was run: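 Binding read as mean relative signal from 4 replicates; microarray held 293 synthetic histone peptides with single or combinatorial PTMs. Each GST-tagged PHD reader was applied at 0.5 μM using the optimized Petell protocol.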

KDM5A (3) = details: GST-tagged KDM5A (3); sheet Array Heatmap; each array performed twice, total n = 4
How it was run: as §1

TAF3 = details: GST-tagged TAF3; sheet Array Heatmap; each array performed twice, total n = 4
How it was run: as §1

ING1 = details: GST-tagged ING1; sheet Array Heatmap; each array performed twice, total n = 4
How it was run: as §1

PHF2 = details: GST-tagged PHF2; sheet Array Heatmap; each array performed twice, total n = 4
How it was run: as §1

BAZ2B = details: GST-tagged BAZ2B; sheet Array Heatmap; each array performed twice, total n = 4
How it was run: as §1

AIRE (PP) = details: GST-tagged AIRE (PP); sheet Array Heatmap; each array performed twice, total n = 4
How it was run: as §1

KDM7A = details: GST-tagged KDM7A; sheet Array Heatmap; each array performed twice, total n = 4
How it was run: as §1

RAG2 = details: GST-tagged RAG2; sheet Array Heatmap; each array performed twice, total n = 4
How it was run: as §1

PHF8 = details: GST-tagged PHF8; sheet Array Heatmap; each array performed twice, total n = 4
How it was run: as §1

MLL5 = details: GST-tagged MLL5; sheet Array Heatmap; each array performed twice, total n = 4
How it was run: as §1

PHF23 = details: GST-tagged PHF23; sheet Array Heatmap; each array performed twice, total n = 4
How it was run: as §1

ING3 = details: GST-tagged ING3; sheet Array Heatmap; each array performed twice, total n = 4
How it was run: as §1

CHD5 (PPCC) = details: GST-tagged CHD5 (PPCC = Dual PHD + Dual Chromodomain); sheet Array Heatmap; each array performed twice, total n = 4
How it was run: as §1

ING5 = details: GST-tagged ING5; sheet Array Heatmap; each array performed twice, total n = 4
How it was run: as §1

TRIM66 (PB) = details: GST-tagged TRIM66 (PB = PHD + Bromodomain); sheet Array Heatmap; each array performed twice, total n = 4
How it was run: as §1

PHRF1 (RP) = details: GST-tagged PHRF1 (RP); sheet Array Heatmap; each array performed twice, total n = 4
How it was run: as §1

DIDO1 = details: GST-tagged DIDO1; sheet Array Heatmap; each array performed twice, total n = 4
How it was run: as §1

KDM5A (1) = details: GST-tagged KDM5A (1); sheet Array Heatmap; each array performed twice, total n = 4
How it was run: as §1

BPTF (PB) = details: GST-tagged BPTF (PB = PHD + Bromodomain); sheet Array Heatmap; each array performed twice, total n = 4
How it was run: as §1

ING2 = details: GST-tagged ING2; sheet Array Heatmap; each array performed twice, total n = 4
How it was run: as §1

SP140L = details: GST-tagged SP140L; sheet Array Heatmap; each array performed twice, total n = 4
How it was run: as §1

KDM5B (3) = details: GST-tagged KDM5B (3); sheet Array Heatmap; each array performed twice, total n = 4
How it was run: as §1

KDM5B (1) = details: GST-tagged KDM5B (1); sheet Array Heatmap; each array performed twice, total n = 4
How it was run: as §1

PHF13 = details: GST-tagged PHF13; sheet Array Heatmap; each array performed twice, total n = 4
How it was run: as §1

CHD5 (PCC) = details: GST-tagged CHD5 (PCC = PHD + Dual Chromodomain); sheet Array Heatmap; each array performed twice, total n = 4
How it was run: as §1

KDM4C (TTP) = details: GST-tagged KDM4C (TTP = Tandem Tudor domain + PHD); sheet Array Heatmap; each array performed twice, total n = 4
How it was run: as §1

CHD4 (PPCC) = details: GST-tagged CHD4 (PPCC = Dual PHD + Dual Chromodomain); sheet Array Heatmap; each array performed twice, total n = 4
How it was run: as §1

ING4 = details: GST-tagged ING4; sheet Array Heatmap; each array performed twice, total n = 4
How it was run: as §1

PHF21A = details: GST-tagged PHF21A; sheet Array Heatmap; each array performed twice, total n = 4
How it was run: as §1

With H3R2me2a: H3 1-20 [Peptide H3R2me2a] the “Array Heatmap signal (histone peptide microarray)” value (“Array Heatmap signal” below) (DPF2 (PPC2W2)) was 0.6507, the “Array Heatmap signal” value (MORC3 (CW)) was 0.4345 and the “Array Heatmap signal” value (KDM5A (3)) was 0.4981. The “Array Heatmap signal” value (TAF3) was 0.2736, the “Array Heatmap signal” value (ING1) was 0.5498 and the “Array Heatmap signal” value (PHF2) was 0.5486. The “Array Heatmap signal” value (BAZ2B) was 0.4186, the “Array Heatmap signal” value (AIRE (PP)) was 0.3953 and the “Array Heatmap signal” value (KDM7A) was 0.3073. For the same substance, the “Array Heatmap signal” value (RAG2) was 0.2465, the “Array Heatmap signal” value (PHF8) was 0.3491 and the “Array Heatmap signal” value (MLL5) was 0.5223. The “Array Heatmap signal” value (PHF23) was 0.5039, the “Array Heatmap signal” value (ING3) was 0.4743 and the “Array Heatmap signal” value (CHD5 (PPCC)) was 0.5177. The “Array Heatmap signal” value (ING5) was 0.3271, the “Array Heatmap signal” value (TRIM66 (PB)) was 0.568 and the “Array Heatmap signal” value (PHRF1 (RP)) was 0.516. The “Array Heatmap signal” value (DIDO1) was 0.6992, the “Array Heatmap signal” value (KDM5A (1)) was 0.4227 and the “Array Heatmap signal” value (BPTF (PB)) was 0.3326. The “Array Heatmap signal” value (ING2) was 0.6004, the “Array Heatmap signal” value (SP140L) was 0.3569 and the “Array Heatmap signal” value (KDM5B (3)) was 0.4682. For the same substance, the “Array Heatmap signal” value (KDM5B (1)) was 0.5237, the “Array Heatmap signal” value (PHF13) was 0.5929 and the “Array Heatmap signal” value (CHD5 (PCC)) was 0.7924. For the same substance, the “Array Heatmap signal” value (KDM4C (TTP)) was 0.4374, the “Array Heatmap signal” value (CHD4 (PPCC)) was 0.6459 and the “Array Heatmap signal” value (ING4) was 0.442. For the same substance, the “Array Heatmap signal” value (PHF21A) was 0.4684.
